Measurements taken from publication PMC12195738 (Pharmaceuticals, 2025).
Like-named read-outs stand apart in the source and are kept apart here.

Columns and labels:
porcine nasal mucosa [1] = test: Flu-Na permeability across IPA-damaged porcine nasal mucosa (Franz diffusion cells); type: in vitro ADME, Sus scrofa domesticus
Description: To systematically investigate this issue, nasal mucosa tissues harvested from the same pig were immersed in 10%, 50%, or 100% IPA for 30 min to induce graded levels of chemical damage. A parallel control sample was incubated in DPBS under identical conditions. Flu-Na permeability was then measured as an indicator of mucosal integrity. This experiment was independently repeated in tissues from three different pigs to ensure reproducibility. Representative images of nasal mucosa following IPA-induced damage are shown in Figure 9, and the corresponding Papp values, normalized to a standardized mucosal thickness of 0.80 mm, are presented in Figure 10.
Tissues obtained from the same pig were used to evaluate the effects of different IPA concentrations and the DPBS control within a single experimental set. To ensure reproducibility, the entire experiment was independently repeated using tissues from three different pigs.
For each experimental set, three pieces of nasal mucosa tissue from the same pig were submerged in 3 mL of IPA at concentrations of 10%, 50%, or 100% for 30 min to induce graded levels of epithelial damage. A parallel control tissue sample from the same pig was submerged in 3 mL of DPBS under identical conditions. Following exposure, all tissues were thoroughly rinsed with DPBS to remove residual solvent and were immediately mounted in Franz diffusion cells for permeability testing.
Nasal mucosal permeability was evaluated using a Phoenix™ DB-6 Franz diffusion system (Teledyne Hanson Research, Los Angeles, CA, USA), equipped with a diffusion area of 1.0 cm^2 and a receptor volume of 10 mL. The nasal mucosa was mounted between the donor and receptor chambers, with the epithelial side facing the donor compartment. […]
The Flu-Na loading solution was prepared at a fixed concentration of 1 mg/mL by dissolving 25 mg of Flu-Na in 25 mL of DPBS using volumetric flasks. […] The supernatants were collected for microplate reader (SpectraMax iD5, Molecular Devices, San Jose, CA, USA) analysis.

[2] = Visual appearance of Flu-Na solutions at different pH values; type: physicochemical; conditions: 1 mg/mL, pH 4.85
Description: Solutions were prepared at a concentration of 1 mg/mL, and visual appearance was recorded after pH adjustment.

[3] = Shake-flask log D (n-octanol/DPBS); type: physicochemical; conditions: pH increased from 6.0 to 10.0
Description: Equal volumes of n-octanol and DPBS were mixed and shaken at room temperature for 24 h using an incubator shaker (Lab-Line Instruments, Inc., Melrose Park, IL, USA) to achieve mutual saturation. The pre-saturated n-octanol and DPBS phases were then carefully transferred into separate centrifuge tubes and centrifuged (Centrifuge 5430 R, Eppendorf AG, Hamburg, Germany) at 5000× g for 20 min to ensure complete phase separation.
Flu-Na solutions were prepared at a final concentration of 1 mg/mL by dissolving Flu-Na in pre-saturated DPBS, followed by pH adjustment to approximately 6, 7, 8, 9, and 10 using sodium hydroxide or hydrochloric acid solutions. […]
The concentrations of Flu-Na in both phases were measured at 492 nm using the microplate reader (SpectraMax iD5, Molecular Devices, San Jose, CA, USA). Calibration curve standards were prepared using DPBS adjusted to the corresponding pH values to ensure accurate quantification under each condition. The log D was calculated as the base-10 logarithm of the concentration ratio between the n-octanol phase and the aqueous phase.

[4] = set-up: method as in PMID 9232516; conditions: reported in the literature; cited from earlier work
[5] = Ex vivo permeation across porcine nasal mucosa in Franz diffusion cells; type: in vitro ADME, Sus scrofa domesticus; conditions: pig
Description: (§1) Nasal mucosa tissues were carefully dissected from the lower turbinates within the nasal cavity. Immediately after excision, the tissues were immersed in chilled DPBS to prevent desiccation and to preserve structural integrity. The samples were then cut into appropriate sizes, and mucosal thickness was measured using an electronic digital caliper (Fisher Scientific, Waltham, MA, USA) as described in previous work. […] The nasal mucosa was mounted between the donor and receptor chambers, with the epithelial side facing the donor compartment. DPBS was used as the receptor medium and maintained at 37 ± 0.5 °C under continuous stirring at 600 rpm. At predetermined time points (0.5, 1, 2, 3, 4, 5, 6, 7, and 8 h), 0.5 mL of sample was withdrawn from the receptor compartment and immediately replaced with fresh DPBS to maintain sink conditions. The melatonin loading solution was prepared by dissolving an appropriate amount of melatonin powder in 5 mL of DPBS, stirring for 15 min, and filtering through a 0.2 µm nylon membrane filter (Fisher Scientific, Waltham, MA, USA). […] At the start of the experiment, 0.5 mL of melatonin loading solution was added to the donor compartment. Receptor samples collected at each time point were mixed with an equal volume of acetonitrile, vortexed, and centrifuged (AccuSpin Micro17, Fisher Scientific, Waltham, MA, USA) at 10,000× g for 20 min. The resulting supernatants were collected for HPLC analysis. […] Receptor samples collected at each time point were centrifuged (AccuSpin Micro17, Fisher Scientific, Waltham, MA, USA) directly at 10,000× g for 20 min. The supernatants were collected for microplate reader (SpectraMax iD5, Molecular Devices, San Jose, CA, USA) analysis. The permeation curve is reported as percentage of drug permeated and was computationally corrected for the withdrawn volume using an Excel (Microsoft, Redmond, WA, USA) add-in program DDSolver 1.0 [53]. Papp were calculated as described in previous work. Numerical simulations were performed using COMSOL Multiphysics® version 6.2 (COMSOL Inc., Burlington, MA, USA), following the methodology established in our previous study. The simulations were based on Fick’s law of diffusion, describing solute concentration changes over time and space within a defined three-dimensional geometry. The “Transport of Diluted Species” physics interface was employed to simulate drug diffusion dynamics, while adsorption effects were incorporated to account for drug retention within the nasal mucosa. […] To address this, the simulation model was first fitted to experimentally obtained permeation profiles to extract key transport parameters. These parameters were subsequently used to normalize each permeation curve to a standardized mucosal thickness of 0.80 mm. Thickness correction minimized the impact of variability and enabled more accurate and consistent comparisons across experimental conditions.

[6] = set-up: method as in doi:10.2343/geochemj.2.0226; conditions: cited from earlier work
porcine nasal mucosa [7] = test: Ex vivo permeation across porcine nasal mucosa in Franz diffusion cells; type: in vitro ADME, Sus scrofa domesticus
Description: as §1

[8] = different-pig (inter-individual) group, n = 3, simulation-based normalization, read-out: mean Papp after normalization to standardized thickness of 0.80 mm
[9] = same-pig (intra-individual) group, n = 3, simulation-based normalization, read-out: mean Papp after normalization to standardized thickness of 0.80 mm

| Compound | Flu-Na permeability (Papp) vs DPBS negative control, preliminary study (porcine nasal mucosa [1]; 10% IPA as positive control, groups from different donor pigs, unpublished data) | trend of Papp values with IPA concentration (porcine nasal mucosa [1]; escalating IPA concentrations (10%, 50%, and 100%), 30 min) | Flu-Na permeability (Papp) vs DPBS negative control (porcine nasal mucosa [1]; mucosa immersed in 10% IPA for 30 min, same pig, normalized to 0.80 mm, three pigs) | visual appearance of solution [2] | log D (shake-flask), pH dependency [3] | log P [4] | Papp at 8 h [5, 8] [×10⁻⁶ cm/s] | Papp at 8 h [5, 9] [×10⁻⁶ cm/s] | log P ([6]; pH 4.29) | log P ([6]; pH 7.5) | decrease of CV of Papp by normalization (porcine nasal mucosa [7]; different-pig group) [%] | decrease of CV of Papp by normalization (porcine nasal mucosa [7]; same-pig group) [%] | Papp at 8 h ([5]; different-pig (inter-individual) group, n = 3, 8 h Franz diffusion, read-out: mean Papp before thickness normalization) [×10⁻⁶ cm/s] | Papp at 8 h, 1008 μg/mL ([5]; same-pig (intra-individual) group, n = 3, 8 h Franz diffusion, read-out: mean Papp before thickness normalization) [×10⁻⁶ cm/s] |
| --- | --- | --- | --- | --- | --- | --- | --- | --- | --- | --- | --- | --- | --- | --- |
| O=C([O-])c1ccccc1-c1c2ccc(=O)cc-2oc2cc([O-])ccc12.[Na+].[Na+] [Flu-Na, Fluorescein sodium salt] | paradoxical decrease | general trend of increasing Papp values | lower | precipitation observed | progressively more negative | −0.67 to −1.52 | 7.33 ± 1.6 | 5.28 ± 0.18 |  |  |  |  |  |  |
| O=C1OC2(c3ccc(O)cc3Oc3cc(O)ccc32)c2ccccc21 [fluorescein] |  |  |  |  |  |  |  |  | approximately 2.78 | −0.08 |  |  |  |  |
| COc1ccc2[nH]cc(CCNC(C)=O)c2c1 [melatonin, Melatonin] |  |  |  |  |  |  | 10.5 ± 0.42 | 10 ± 0.78 |  |  | 5.7 | 16.8 | 14.6 ± 1.42 | 14.1 ± 3.47 |
